# Results as given in US20150258197A1, “EUTECTIC ISOMETHEPTENE MUCATE” (TONIX PHARMA HOLDINGS LIMITED, priority 2014, published 2015).
# Tests used:
# mice = experiment: Hot Plate Test; format: in vivo; details: mouse, hot plate 54° C., 10, 30 and 100 mg/kg p.o. 15 minutes before the test
# Excerpt: Common mouse models for pain include the Formalin Test (Wheeler-Aceto, et al., Psychopharmacology, 104, 35-44, 1991), the Hot Plate Test (Eddy and Leimbach, J. Pharmacol. Exp. Ther., 107, 385-393, 1953), and the Tail-flick Test (D'Amour and Smith, J. Pharmacol. Exp. Ther., 1, 74-79, 1941). These methods detect analgesic activity of compositions of interest. In the Formalin Test, mice are given an intraplantar injection of 5% formalin into one posterior hindpaw to induce paw licking. Test compositions are given to the mice before treatment with formalin and the mice are evaluated and compared to a control group. In the Hot Plate Test, mice are placed onto a hot metal plate maintained at 54° C. and the latency to the first foot-lick is measured. As with the Formalin test, compositions of interest are given to the mice before the test and the mice are evaluated and compared to a control group. In the Tail-flick Test, a mouse's tail is heated by means of a thermal light source, and the latency before the animal withdraws its tail is measured. […]
# Mice were placed onto a hot metal plate maintained at 54° C. surrounded by a Plexiglas cylinder (height: 13 cm; diameter: 19 cm). The latency to the first foot-lick was measured (maximum: 30 seconds). […]
# Data with the test substance were analyzed by comparing treated groups with vehicle control using ANOVA followed by post-hoc Dunnett's tests. […]
# [1] = test system: Spontaneous trigeminal allodynia (STA) rats; experiment: Tactile sensory testing with von Frey monofilaments in STA rats; format: in vivo, rat; details: injected, versus (S)-isometheptene mucate treated or control rats
# Excerpt: Pain, headaches, and migraines have been modeled in animals such as mice and rats. For example, Oshinsky et al. (Oshinsky, M. L., et al., Spontaneous Trigeminal Allodynia in Rats: A Model of Primary Headache, 2012, 52: 1336-1349) describes spontaneous trigeminal allodynia (STA) rats with the inherited trait of spontaneously changing trigeminal von Frey thresholds. These rats are a model of spontaneous headache and can be used as a model of primary headache. Through a series of tactile sensory tests, the periorbital, hind-paw, and jaw-pressure thresholds for STA rats are determined by applying von Frey monofilaments. […] Analgesic activity of the compositions described herein can be evaluated by determining trigeminal von Frey thresholds in STA rats. […]
# STA rats and litter mates without the trait were injected with compounds selected from (R)-isometheptene mucate and (5)-isometheptene mucate on days when their thresholds in spontaneous allodynia rats were 4 g or below for STA rats. […] Tactile sensory thresholds were recorded prior to and following injections at 0.5 hours, 1.5 hours, 2.5 hours, 3.5 hours, and 24 hours. […]
# Periorbital, hind-paw, and jaw-pressure thresholds were determined by applying von Frey monofilaments (Stoelting Co., Wood Dale, Ill., USA). […] Left and right threshold data were recorded separately. […]
smiles,measurement,setting,value
CN[C@H](C)CCC=C(C)C [(R)-isometheptene mucate],Foot-licking latency compared to vehicle,mice,longer foot-licking latency times
same,Tactile sensory (von Frey) threshold values,[1],dramatic increase in threshold values
